In brackets after ≈: the same amount, converted by molar mass.

This data set deals with Ceriodaphnia. As to conditions: in vivo; for LC50 value: ceriodaphnia, 48 h.

On to `CCOP(=S)(OCC)Oc1cc(C)nc(C(C)C)n1` [Diazinon, diazinon], for which the LC50 value is 0.38 ng/mL (≈ 1.25 nM), the “Diazinon TUs” value amounted to 4.5 TUs, the “TUs by ELISA” value is on record as 1.9 TUs and the “actual toxicity due to the chemical (TUs)” value amounted to 0.9 TUs.

`CCCCOCCOCCOCc1cc2c(cc1CCC)OCO2` [PB, piperonyl butoxide]: the “Actual Sample TUs / Sample TUs after treatment” value is reported as ~ 1.0 TUs and the “Residual TUs (after PB Treatment)” value is reported as 1.0 TUs.

`CCOP(=S)(OCC)Oc1nc(Cl)c(Cl)cc1Cl` [Chlorpyrifos, chlorpyrifos]: the LC50 value was determined as 0.08 ng/mL (≈ 0.228 nM), the “Chlorpyrifos TUs” value was 2.2 TUs, the “TUs by ELISA” value was determined as 3.2 TUs and the “actual toxicity due to the chemical (TUs)” value was found to be 0.5 TUs.
